Earlier results on 1 compound are cited in patent US8143291B2, “Indole compounds bearing aryl or heteroaryl groups having sphingosine-1-phosphate (S1P) receptor biological activity” (Allergan, Inc., priority 2008, dated 2012).

In the data set the test system is perfused porcine eyes. The following applies: by altering paracellular permeability, IOVS 45, 2263, 2004.

In the case of `CCCCCCCCCCCCC/C=C/[C@@H](O)[C@@H](N)COP(=O)(O)O` [S1P, Sphingosine-1-phosphate], the “decrease of outflow facility” value is on record as over 30%.
